Experimental data from the CheMixHub viscosity set.

Test: xn = mol fraction of the nth substance listed

[Cl-].[Cl-].[Sr+2] + O
Conditions	viscosity [mPa·s]
293.15 K, 100 kPa, x1 = 0.0048	1.08
293.15 K, 100 kPa, x1 = 0.01	1.172
293.15 K, 100 kPa, x1 = 0.016	1.283
293.15 K, 100 kPa, x1 = 0.0302	1.607
293.15 K, 100 kPa, x1 = 0.0452	2.065
293.15 K, 101.3 kPa, x1 = 0.0009	1.018
293.15 K, 101.3 kPa, x1 = 0.0018	1.032
293.15 K, 101.3 kPa, x1 = 0.00893	1.146
293.15 K, 101.3 kPa, x1 = 0.0177	1.312
293.15 K, 101.3 kPa, x1 = 0.02631	1.515
293.15 K, 101.3 kPa, x1 = 0.03478	1.722
293.15 K, 101.3 kPa, x1 = 0.0431	1.994
298.15 K, 100 kPa, x1 = 0.0048	0.9628
298.15 K, 100 kPa, x1 = 0.01	1.048
298.15 K, 100 kPa, x1 = 0.016	1.152
298.15 K, 100 kPa, x1 = 0.0302	1.447
298.15 K, 100 kPa, x1 = 0.0452	1.862
298.15 K, 101.3 kPa, x1 = 0.0009	0.9055
298.15 K, 101.3 kPa, x1 = 0.0018	0.9188
298.15 K, 101.3 kPa, x1 = 0.00893	1.025
298.15 K, 101.3 kPa, x1 = 0.0177	1.179
298.15 K, 101.3 kPa, x1 = 0.02631	1.364
298.15 K, 101.3 kPa, x1 = 0.03478	1.552
298.15 K, 101.3 kPa, x1 = 0.0431	1.797
303.15 K, 101.3 kPa, x1 = 0.0009	0.8117
303.15 K, 101.3 kPa, x1 = 0.0018	0.8241
303.15 K, 101.3 kPa, x1 = 0.00893	0.9228
303.15 K, 101.3 kPa, x1 = 0.0177	1.065
303.15 K, 101.3 kPa, x1 = 0.02631	1.236
303.15 K, 101.3 kPa, x1 = 0.03478	1.408
303.15 K, 101.3 kPa, x1 = 0.0431	1.63
308.15 K, 101.3 kPa, x1 = 0.0009	0.7325
308.15 K, 101.3 kPa, x1 = 0.0018	0.7443
308.15 K, 101.3 kPa, x1 = 0.00893	0.8365
308.15 K, 101.3 kPa, x1 = 0.0177	0.9688
308.15 K, 101.3 kPa, x1 = 0.02631	1.127
308.15 K, 101.3 kPa, x1 = 0.03478	1.284
308.15 K, 101.3 kPa, x1 = 0.0431	1.487
313.2 K, 100 kPa, x1 = 0.0302	1.096
313.56 K, 100 kPa, x1 = 0.0048	0.7071
313.9 K, 100 kPa, x1 = 0.01	0.7701
314.54 K, 100 kPa, x1 = 0.0452	1.374
315.86 K, 100 kPa, x1 = 0.016	0.8261
318.15 K, 101.3 kPa, x1 = 0.0009	0.6082
318.15 K, 101.3 kPa, x1 = 0.0018	0.6186
318.15 K, 101.3 kPa, x1 = 0.00893	0.6997
318.15 K, 101.3 kPa, x1 = 0.0177	0.8151
318.15 K, 101.3 kPa, x1 = 0.02631	0.9514
318.15 K, 101.3 kPa, x1 = 0.03478	1.086
318.15 K, 101.3 kPa, x1 = 0.0431	1.258

[K+].[O-][Cl+2]([O-])[O-] + O
viscosity [mPa·s], 100 kPa
Conditions	293.15 K	298.15 K	303.15 K	308.15 K	313.15 K	318.15 K
x1 = 0.000182	0.995	0.888	0.799	0.725	0.661	0.607
x1 = 0.0018	0.984	0.878	0.789	0.717	0.655	0.602
x1 = 0.003608	0.979	0.874	0.788	0.717	0.656	0.603
x1 = 0.005413	0.977	0.873	0.788	0.718	0.656	0.604
x1 = 0.00717	0.977	0.876	0.791	0.72	0.659	0.608
x1 = 0.008941	0.983	0.881	0.797	0.725	0.665	0.613
